PubChem BioAssay (NCI)
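Values below derive from 48-hour exposures of cells grown in 96-well plates, with endpoints linearly interpolated between the two concentrations bracketing the appropriate inhibition level. TGI: concentration producing complete growth inhibition.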

Experiments:
Assay in all cases: DTP human tumour cell line panel, 48 h
HL-60(TB) leukemia = system: HL-60(TB) leukemia
MDA-MB-231 breast = system: MDA-MB-231 breast
NCI/ADR-RES ovarian = system: NCI/ADR-RES ovarian
RPMI-8226 leukemia = system: RPMI-8226 leukemia
MOLT-4 leukemia = system: MOLT-4 leukemia
NCI-H522 lung = system: NCI-H522 lung
HOP-92 NSCLC = system: HOP-92 NSCLC
SK-MEL-5 melanoma = system: SK-MEL-5 melanoma
UO-31 renal = system: UO-31 renal
LOX IMVI melanoma = system: LOX IMVI melanoma
MALME-3M melanoma = system: MALME-3M melanoma
DU-145 prostate = system: DU-145 prostate
HCT-116 colon = system: HCT-116 colon
BT-549 breast = system: BT-549 breast
HOP-62 NSCLC = system: HOP-62 NSCLC
EKVX NSCLC = system: EKVX NSCLC
SR leukemia = system: SR leukemia
SW-620 colon = system: SW-620 colon
SF-539 CNS = system: SF-539 CNS
SNB-19 CNS = system: SNB-19 CNS
OVCAR-5 ovarian = system: OVCAR-5 ovarian
IGROV1 ovarian = system: IGROV1 ovarian
U251 CNS = system: U251 CNS
HS 578T breast = system: HS 578T breast
OVCAR-8 ovarian = system: OVCAR-8 ovarian
SF-295 CNS = system: SF-295 CNS
HCC-2998 colon = system: HCC-2998 colon
CAKI-1 renal = system: CAKI-1 renal
OVCAR-3 ovarian = system: OVCAR-3 ovarian
COLO 205 colon = system: COLO 205 colon
SNB-75 CNS = system: SNB-75 CNS
OVCAR-4 ovarian = system: OVCAR-4 ovarian
HCT-15 colon = system: HCT-15 colon
MDA-MB-435 = system: MDA-MB-435
MDA-N = system: MDA-N
NCI-H23 lung = system: NCI-H23 lung
SN12C renal = system: SN12C renal
ACHN renal = system: ACHN renal
NCI-H226 lung = system: NCI-H226 lung
HT29 colon = system: HT29 colon
RXF 393 renal = system: RXF 393 renal
UACC-257 melanoma = system: UACC-257 melanoma
SK-MEL-28 melanoma = system: SK-MEL-28 melanoma
PC-3 prostate = system: PC-3 prostate
TK-10 renal = system: TK-10 renal
SF-268 CNS = system: SF-268 CNS
A549 NSCLC = system: A549 NSCLC
MCF7 breast = system: MCF7 breast
NCI-H460 lung = system: NCI-H460 lung
786-0 renal = system: 786-0 renal
A498 renal = system: A498 renal
KM12 colon = system: KM12 colon
UACC-62 melanoma = system: UACC-62 melanoma
M14 melanoma = system: M14 melanoma
CCRF-CEM leukemia = system: CCRF-CEM leukemia
K-562 leukemia = system: K-562 leukemia
SK-OV-3 ovarian = system: SK-OV-3 ovarian
SK-MEL-2 melanoma = system: SK-MEL-2 melanoma

Measured: TGI

CC(C)(C)OC(=O)NC(Cc1ccc(O)cn1)C(N)=O (stereo not given)
not listed: UACC-62 melanoma | M14 melanoma | CCRF-CEM leukemia | K-562 leukemia | SK-OV-3 ovarian | SK-MEL-2 melanoma
> 100 µM: all other assays above

O=c1[nH]c(=O)n(COCc2ccccc2)c2ccc([N+](=O)[O-])cc12
not listed: RPMI-8226 leukemia | NCI-H522 lung | MALME-3M melanoma | BT-549 breast | HOP-62 NSCLC | SNB-19 CNS | HS 578T breast | NCI-H23 lung | SF-268 CNS | NCI-H460 lung
> 100 µM: all other assays above
